In patent publication US9017693B2, “Apoptotically active peptides” (Cytotools AG, priority 2001, dated 2015):
Non-standard residues stand in square brackets, D forms with d. No end group written: not given here.

Legend:
[1] = tested on: HUVEC; assay: Test system for apoptotically active peptides: TSP-1-induced apoptosis of cultivated HUVEC, DAPI dyeing; type: cell-based, human
Procedure: For the purposes of the disclosure, the term “apoptotically active” will mean that the addition of the respective substance to the test system shown in Examples 5 and 6 generates either a positive or negative inhibition index. Particularly endothelial cells, preferably especially HUVEC, are to this end cultivated in a medium which includes 1 μg TSP-1 per ml. The percentage apoptosis values of such positive control will then serve, as shown in the examples, for the calculation of the inhibition index for those substances which are used as potential inhibitors together with the inductor TSP-1 in parallel tests.
(§1) Cultivation of HUVEC takes place in gelatin-coated culture vessels at 37° C., 5% CO2 and water vapor saturated atmosphere. The culture medium is exchanged every two to three days; in case of confluence, the cells are passaged at a cleavage rate of from 1:3 to 1:5. HUVEC grow strictly contact-inhibited and form unilaminar cell bed having the typical cobble-stone morphology. In case of confluence, the cultures reach cell densities of 4-9×10^4 cells/cm^2. For apoptosis examinations, HUVEC cultures of passages 1-4 are exclusively employed.
(§2) The culture supernatant of a Petri dish is sucked off, the cell bed is fixed on ice for 15 minutes with 1 ml formaldehyde solution, is washed twice with 2 ml PBS, is added 0.5 ml DAPI solution for 15 minutes, is washed with PBS and evaluated under the fluorescence microscope. A UV filter set and a 20× and a 40× objective are used. 500 to 1000 cells are selected at random and the cells having apoptotic nuclei are counted.
(§3) The apoptosis index is calculated in accordance with the following formula: Apoptosis index [%]=number of apoptotic cells/total cell number×100 Flow Cytometry: Solutions: • PBS • Medium • Ethanol (reagent-grade) ice-cooled (−20° C.) • DAPI buffer • DAPI stock solution • DAPI dye solution Procedure:
The culture supernatant is sucked off and the cells are trypsinized without washing them with PBS. The cell suspension is received in medium, is counted, is centrifuged at 800×g for 5 minutes, the sediment is re-suspended in 0.5 ml IF and is dripped into 1.5 ml ice-cold ethanol. The suspension is stored overnight at […]. After renewed centrifugation and re-suspending of the sediment in 2 ml PBS, there follows a half-hour incubation at 37° C., further centrifugation, re-suspending of the sediment in 5 ml DAPI solution, and counting in the flow cytometer at a counting rate of 50 to 300 events per second. […] Caused by the decreasing absolute DNS amount per cell, apoptotic cells appear in a sub-G1 peak [Darzynklewicz Z. et al., Cytometry, 13, 795-808 (1992); Zamai L. et al., Cytometry, 14, 891-897 (1993)].
The cells were cultivated as described in Example 1. The cells are seeded in the corresponding culture vessels (e.g. 24-hole plate/0.5 ml per cavity) and, having obtained complete confluence, are employed for the test. The cells are provided with new medium: • (a) fresh culture medium [Base rate of apoptosis], • (b) fresh medium with 1 μg/ml TSP-1 [Apoptosis-induced substance; control], • (c) medium (b)+peptide of SEQ ID NO 1, 1 mM • (d) medium (b)+peptide of SEQ ID NO 2, 1 mM • (e) medium (b)+peptide of SEQ ID NO 3, 1 mM • (f) medium (b)+peptide of SEQ ID NO 4, 1 mM • (g) medium (b)+peptide of SEQ ID NO 7, 1 mM • (h) medium (b)+peptide of SEQ ID NO 8, 1 mM • (i) medium (b)+peptide of SEQ ID NO 9, 1 mM • (j) medium (b)+peptide of SEQ ID NO 10, 1 mM • (k) medium (b)+peptide of SEQ ID NO 11, 1 mM • (l) medium (b)+peptide of SEQ ID NO 12, 1 mM • (m) medium (b)+peptide of SEQ ID NO 13, 1 mM • (n) medium (b)+peptide of SEQ ID NO 14, 1 mM • (o) medium (b)+peptide of SEQ ID NO 15, 1 mM • (p) medium (b)+peptide of SEQ ID NO 16, 1 mM • (q) medium (b)+peptide of SEQ ID NO 17, 1 mM • (r) medium (b)+peptide of SEQ ID NO 18, 1 mM • (s) medium (b)+peptide of SEQ ID NO 19, 1 mM […]

[2] = tested on: HUVEC; assay: Induction of apoptosis at HUVEC with TSP-1; type: cell-based, human; settings: confluent HUVEC, fresh medium + TSP-1 1 μg/ml; fresh medium alone 0.9 ± 0.1
Procedure: as §1, §2, §3
The cells are cultivated as described in Example 1. Having obtained complete confluence, the cells are used for the test. […]

[3] = lengthened peptide sequences, TSP-1 + peptide, tests as in Example 5, control 8.73 ± 0.43
[4] = lengthened peptide sequences, TSP-1 + peptide, tests as in Example 5, positive = substance inhibited
[5] = 1 μg/ml TSP-1 + peptide 1 mM, 24 hours, positive = substance inhibited, negative = substance induced apoptosis
[6] = medium with 1 μg/ml TSP-1 + peptide 1 mM, 24 hours, mean ± SD of three independent experiments, control 3.28 ± 0.55

For “K-R-A-Y-V-V-M-W-K-K (KRAYVVMWLL) [SEQ ID NO 5]”, the “Apoptosis index [%]” value [1, 3] was 0.37 ± 0.22% and the “Inhibition index [%]” value [1, 4] was “+95.8 ± 2.6%”.
“K-R-E-Y-V-V-M-W-K-K (LREYVVMWKK) [SEQ ID NO 6]” was tested, and the “Apoptosis index [%]” value [1, 3] was 0.48 ± 0.22% and the “Inhibition index [%]” value [1, 4] was “+94.5 ± 2.5%”.
For M-V-V-Y-F-R (MVVYFR) [SEQ ID NO 12], the “Inhibition index [%]” value [1, 5] was −34.1 ± 6.2% and the “Apoptosis index [%]” value [1, 6] was 4.40 ± 0.53%.
With R-A-Y-V-V-A (RAYVVA) [SEQ ID NO 13] the “Inhibition index [%]” value [1, 5] was −51.8 ± 6.0% and the “Apoptosis index [%]” value [1, 6] was 4.98 ± 0.3%.
In the case of R-A-Y-V-V-M (RAYVVM) [SEQ ID NO 1], the “Inhibition index [%]” value [1, 5] is reported as “+75.3 ± 7.5%” and the “Apoptosis index [%]” value [1, 6] is reported as 0.83 ± 0.24%.
With R-C-Y-V-V-M (RCYVVM) [SEQ ID NO 17] the “Inhibition index [%]” value [1, 5] was −326.5 ± 3.6% and the “Apoptosis index [%]” value [1, 6] was 13.97 ± 0.35%.
For R-D-Y-V-V-M (RDYVVM) [SEQ ID NO 11], the “Inhibition index [%]” value [1, 5] was “+37.3 ± 14.0%” and the “Apoptosis index [%]” value [1, 6] was 2.12 ± 0.47%.
With R-E-Y-V-V-M (REYVVM) [SEQ ID NO 4] the “Inhibition index [%]” value [1, 5] was “+69.0 ± 8.9%” and the “Apoptosis index [%]” value [1, 6] was 1.04 ± 0.30%.
For R-G-Y-V-V-M (RGYVVM) [SEQ ID NO 7], the “Inhibition index [%]” value [1, 5] was “+46.4 ± 11.1%” and the “Apoptosis index [%]” value [1, 6] was 1.83 ± 0.37%.
With R-L-Y-V-V-M (RLYVVM) [SEQ ID NO 14] the “Inhibition index [%]” value [1, 5] was −95.4 ± 6.1% and the “Apoptosis index [%]” value [1, 6] was 6.41 ± 0.63%.
For R-M-Y-V-V-M (RMYVVM) [SEQ ID NO 8], the “Inhibition index [%]” value [1, 5] was “+44.2 ± 11.6%” and the “Apoptosis index [%]” value [1, 6] was 1.84 ± 0.39%.
For R-N-Y-V-V-M (RNYVVM) [SEQ ID NO 10], the “Inhibition index [%]” value [1, 5] was “+39.5 ± 15.8%” and the “Apoptosis index [%]” value [1, 6] was 2.06 ± 0.53%.
In the case of R-P-Y-V-V-M (RPYVVM) [SEQ ID NO 15], the “Inhibition index [%]” value [1, 5] is reported as −72.8 ± 6.4% and the “Apoptosis index [%]” value [1, 6] is reported as 5.67 ± 0.54%.
For R-S-Y-V-V-M (RSYVVM) [SEQ ID NO 16], the “Inhibition index [%]” value [1, 5] was −108.4 ± 3.7% and the “Apoptosis index [%]” value [1, 6] was 6.86 ± 0.37%.
In the case of R-T-Y-V-V-M (RTYVVM) [SEQ ID NO 9], the “Inhibition index [%]” value [1, 5] is reported as “+44.5 ± 9.8%” and the “Apoptosis index [%]” value [1, 6] is reported as 1.86 ± 0.36%.
With R-W-Y-V-V-M (RWYVVM) [SEQ ID NO 2] the “Inhibition index [%]” value [1, 5] was “+61.9 ± 7.7%” and the “Apoptosis index [%]” value [1, 6] was 1.30 ± 0.26%.
In the case of R-Y-Y-V-V-M (RYYVVM) [SEQ ID NO 3], the “Inhibition index [%]” value [1, 5] is reported as “+74.7 ± 5.0%” and the “Apoptosis index [%]” value [1, 6] is reported as 0.85 ± 0.17%.
“TSP-1: thrombospondin 1, apoptosis-inducing substance added at 1 μg/ml to HUVEC medium as inductor/control” was tested, and the “Apoptosis rate (%) after 24 h” value [2] was 3.0 ± 0.4%.
For “m-v-v-y-a-r ([dM][dV][dV][dY][dA][dR]) [SEQ ID NO 19]”, the “Inhibition index [%]” value [1, 5] was −247.1 ± 5.4% and the “Apoptosis index [%]” value [1, 6] was 11.4 ± 0.63%.
For “m-v-v-y-f-r ([dM][dV][dV][dY][dF][dR]) [SEQ ID NO 18]”, the “Inhibition index [%]” value [1, 5] was −345.1 ± 5.1% and the “Apoptosis index [%]” value [1, 6] was 14.6 ± 0.75%.
